These results are taken from US4923963A, “Bradykinin antagonist peptides” (Nova Technology Limited Partnership, priority 1987, dated 1990).

SMILES strings stand for the structures. Read-outs that look alike come from different tables or passages of the source. Square brackets hold non-standard residues; d marks the D form. Peptide text beside a SMILES is read from it. d2Nal = N[C@H](Cc1ccc2ccccc2c1)C(=O)O; Hyp = O=C(O)[C@@H]1C[C@@H](O)CN1; 2Thi = N[C@@H](Cc1cccs1)C(=O)O; d2Thi = N[C@H](Cc1cccs1)C(=O)O

Series [1] relates to isolated guinea pig ileum. The series is classed as cell-based. As to conditions: isolated guinea pig ileum; for pA2 /GPI: activity class: not quantitated; for pA2 /GPI (antagonist potency): number of tissues in parentheses. Details: pA2 /GPI: activity class: scale not given here. On the procedure: The bradykinin antagonists were assayed on isolated rat uterus in natural or induced estrus and on guinea pig ileum, according to the commonly accepted assay methods for bradykinin and related kinins as described by Trautschold (Handbook of Expt. Pharmacol. Vol 25, Springer Verlag, pp. 53-55, 1970) for inhibition of the myotropic activity of bradykinin. The inhibition potencies, as determined according to the commonly accepted manner described by Schild for antagonists of biologically active compounds (Br. J. Pharmacol. 2:189, 1947), and expressed as pA2 values are determined on isolated rat uterus (RUT) and isolated guinea pig ileum (GPI). In the assays, a dose-response curve is determined for the reference substance bradykinin. The dose of bradykinin which produced a half maximal contraction of tissue is the ED50 dose. An amount of bradykinin equivalent to twice the ED50 dose is administered to the tissue 30 seconds after the start of incubation of the tissue with a dose of antagonist. Doses of antagonist are increased in this protocol until pre-incubation with a dose of antagonist reduces the contraction in response to the double ED50 dose of bradykinin to response of a single ED50 dose of bradykinin. The pA2 value represents the negative logarithm of the molar concentration of antagonist necessary to reduce the response of a double ED50 dose of bradykinin to that of an ED50 dose. One unit of pA2 value represents an order of magnitude change in potency. For comparison, the negative log of the dose of BK, the dose which causes half maximal contraction of the tissues, is commonly known as the pD2 value. The pD2 value for bradykinin is 7.9 on the rat uterus and 7.4 on the guinea pig ileum.

In the next series the test system is isolated rat uterus. It is filed as cell-based. As to conditions: for pA2 /RUT: activity class: not quantitated. Summed up: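 Antagonism of bradykinin-induced contraction in isolated rat uterus (natural or induced estrus) and guinea pig ileum. Antagonist preincubated 30 s before a double-ED50 bradykinin dose, with the dose raised until the response fell to that of a single ED50. pA2 is the negative log molar antagonist concentration achieving this (Schild method).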

A further series relates to rat blood pressure. The series is described as follows: effects on blood pressure in the anesthetized rat (RBP), intraaortic and intravenous bolus. It is filed as in vivo. Details: RBP-IA: activity class / RBP-IV: activity class: scale not given here. On the procedure:
The in vivo effects of bradykinin antagonists on blood pressure in the anesthetized rat are determined according to the assay described by Roblero, Ryan and Stewart (Res. Commun. Pathol. Pharmacol. 6:207, 1973). The antagonists also produce inhibition of the bradykinin response when injected as a bolus admixture of bradykinin plus antagonist by either the ia or iv route of administration.

The mark [2] stands for this setting: rat blood pressure, intraaortic bolus.
Setting [3] is: rat blood pressure, intravenous bolus.

Consider `CC(C)[C@@H](N)C(=O)N1CCC[C@H]1C(=O)N1C[C@H](O)C[C@H]1C(=O)NCC(=O)N[C@@H](Cc1ccccc1)C(=O)N[C@@H](CO)C(=O)N[C@H](Cc1ccccc1)C(=O)N[C@@H](Cc1ccccc1)C(=O)N[C@@H](CCCNC(=N)N)C(=O)O` [Example 15, DVal-Pro-Hyp-Gly-Phe-Ser-DPhe-Phe-Arg] (H-[dV]P[Hyp]GFS[dF]FR-OH), for which the “pA2 /GPI: activity class” value in series [1] amounted to 0. In addition, the “pA2 /RUT: activity class” value with isolated rat uterus (isolated rat uterus) came out at 0. Besides, in the series with rat blood pressure (setting [2]), the “RBP-IA: activity class” value is reported as 0. Also, the “RBP-IV: activity class” value with rat blood pressure (setting [3]) is on record as 0.

Regarding `N=C(N)NCCC[C@H](NC(=O)[C@H](Cc1ccccc1)NC(=O)[C@@H](Cc1ccccc1)NC(=O)[C@H](CO)NC(=O)[C@H](Cc1ccccc1)NC(=O)CNC(=O)[C@@H]1C[C@@H](O)CN1C(=O)[C@@H]1CCCN1C(=O)[C@H](N)Cc1ccc2ccccc2c1)C(=O)O` [Example 30, DNa]-Pro-Hyp-Gly-Phe-Ser-DPhe-Phe-Arg] (H-[d2Nal]P[Hyp]GFS[dF]FR-OH), the “pA2 /GPI: agonist potency as percent of BK potency” value in series [1] was 0.1%. For the same compound, the “pA2 /RUT: activity class” value with isolated rat uterus (isolated rat uterus) is given as 0. Besides, in the series with rat blood pressure (setting [2]), the “RBP-IA: activity class” value was found to be 0. In addition, in the series with rat blood pressure (setting [3]), the “RBP-IV: activity class” value was determined as 0.

In the case of `N=C(N)NCCC[C@H](NC(=O)[C@H](Cc1ccccc1)NC(=O)[C@@H](Cc1cccs1)NC(=O)[C@H](CO)NC(=O)[C@H](Cc1ccccc1)NC(=O)CNC(=O)[C@@H]1CCCN1C(=O)[C@@H]1CCCN1C(=O)[C@H](N)Cc1cccs1)C(=O)O` [Example 33, DThi-Pro-Pro-Gly-Phe-Ser-DThi-Phe-Arg] (H-[d2Thi]PPGFS[d2Thi]FR-OH), the “pA2 /GPI: activity class” value in series [1] worked out at 0. Further, the “pA2 /RUT: activity class” value with isolated rat uterus (isolated rat uterus) is recorded as 0. Besides, in the series on rat blood pressure (setting [2]), the “RBP-IA: activity class” value is on record as 0. The “RBP-IV: activity class” value with rat blood pressure (setting [3]) is given as 0.

In the case of `N=C(N)NCCC[C@@H](N)C(=O)N[C@H](Cc1cccs1)C(=O)N1CCC[C@H]1C(=O)N1CCC[C@H]1C(=O)NCC(=O)N[C@@H](Cc1ccccc1)C(=O)N[C@@H](CO)C(=O)N[C@H](Cc1cccs1)C(=O)N[C@@H](Cc1ccccc1)C(=O)N[C@@H](CCCNC(=N)N)C(=O)O` [Example 35, DArg-DThi-Pro-Pro-Gly-Phe-Ser-DThi-Phe-Arg] (H-[dR][d2Thi]PPGFS[d2Thi]FR-OH), in series [1], the “pA2 /GPI: activity class” value is 0. In the series on isolated rat uterus (isolated rat uterus), the “pA2 /RUT: activity class” value came out at 0. Further, the “RBP-IA: activity class” value in the series on rat blood pressure (setting [2]) was found to be 0. Besides, the “RBP-IV: activity class” value in the series on rat blood pressure (setting [3]) is recorded as 0.

For `N=C(N)NCCC[C@@H](N)C(=O)N[C@H](Cc1ccc2ccccc2c1)C(=O)N1CCC[C@H]1C(=O)N1CCC[C@H]1C(=O)NCC(=O)N[C@@H](Cc1ccccc1)C(=O)N[C@@H](CO)C(=O)N[C@H](Cc1cccs1)C(=O)N[C@@H](Cc1ccccc1)C(=O)N[C@@H](CCCNC(=N)N)C(=O)O` [Example 39, DArg-DNal-Pro-Pro-Gly-Phe-Ser-DThi-Phe-Arg] (H-[dR][d2Nal]PPGFS[d2Thi]FR-OH), the “pA2 /GPI: activity class” value in series [1] is given as 0. Further, the “pA2 /RUT (antagonist potency)” value in the series on isolated rat uterus turned out to be 5.6. Moreover, the “RBP-IA: activity class” value in the series on rat blood pressure (setting [2]) worked out at 0. Besides, the “RBP-IV: activity class” value in the series on rat blood pressure (setting [3]) came to 0.

Consider `N=C(N)NCCC[C@H](N)C(=O)N1CCC[C@H]1C(=O)N1CCC[C@H]1C(=O)NCC(=O)N[C@@H](Cc1cccs1)C(=O)N[C@@H](CO)C(=O)N[C@H](Cc1ccccc1)C(=O)N[C@@H](Cc1cccs1)C(=O)N[C@H](CCCNC(=N)N)C(=O)O` [Example 41, Arg-Pro-Pro-Gly-Thi-Ser-DPhe-Thi-DArg] (H-RPPG[2Thi]S[dF][2Thi][dR]-OH), for which the “pA2 /GPI: activity class” value in series [1] stood at 0. In addition, the “pA2 /RUT: agonist potency as percent of BK potency” value (from here on “pA2 /RUT … as percent of BK potency”) with isolated rat uterus is 0.01%. Besides, in the series with rat blood pressure (rat, in vivo), the “% DESTR (metabolic breakdown of BK-like agonists in RBP assay)” value was determined as 77% and the “RBP-IA: agonist potency as percent of BK potency” value is 0.1%. Further, the “RBP-IV: agonist potency as percent of BK potency” value with rat blood pressure (rat, in vivo, iv) is on record as 0.6%.

As for `CC(=O)N[C@@H](CCCNC(=N)N)C(=O)N1CCC[C@H]1C(=O)N1CCC[C@H]1C(=O)NCC(=O)N[C@@H](Cc1cccs1)C(=O)N[C@@H](CO)C(=O)N[C@H](Cc1ccccc1)C(=O)N[C@@H](Cc1cccs1)C(=O)N[C@H](CCCNC(=N)N)C(=O)O` [Example 42, Ac-Arg-Pro-Pro-Gly-Thi-Ser-DPhe^7 -Thi-DArg] (Ac-RPPG[2Thi]S[dF][2Thi][dR]-OH), the “pA2 /GPI: activity class” value in series [1] stood at 0. Also, the “pA2 /RUT: activity class” value in the series with isolated rat uterus (isolated rat uterus) is 0. Also, the “RBP-IA: activity class” value with rat blood pressure (setting [2]) is listed as 0. Besides, the “RBP-IV: activity class” value in the series on rat blood pressure (setting [3]) turned out to be 0.

Regarding `N=C(N)NCCC[C@@H](N)C(=O)N[C@@H](CCCNC(=N)N)C(=O)N1CCC[C@H]1C(=O)N1CCC[C@H]1C(=O)NCC(=O)N[C@@H](Cc1cccs1)C(=O)N[C@@H](CO)C(=O)N[C@H](Cc1ccccc1)C(=O)N[C@@H](Cc1cccs1)C(=O)N[C@H](CCCNC(=N)N)C(=O)O` [Example 43, DArg-Arg-Pro-Pro-Gly-Thi-Ser-DPhe-Thi-DArg] (H-[dR]RPPG[2Thi]S[dF][2Thi][dR]-OH), the “pA2 /GPI: activity class” value in series [1] came out at 0. The “pA2 /RUT: activity class” value in the series on isolated rat uterus (isolated rat uterus) was found to be 0.

`CC(=O)N[C@@H](CCCNC(=N)N)C(=O)N1CCC[C@H]1C(=O)N1CCC[C@H]1C(=O)NCC(=O)N[C@@H](Cc1cccs1)C(=O)N[C@@H](CO)C(=O)N[C@H](Cc1ccccc1)C(=O)N[C@@H](Cc1cccs1)C(=O)N[C@@H](CCCNC(=N)N)C(N)=O` [Example 52, Ac-Arg-Pro-Pro-Gly-Thi-Ser-DPhe-Thi-Arg-NH2] (Ac-RPPG[2Thi]S[dF][2Thi]R-NH2): the “pA2 /GPI: activity class” value in series [1] stood at 0. In addition, the “pA2 /RUT: activity class” value in the series with isolated rat uterus (isolated rat uterus) stood at 0.

On to `CC(=O)N[C@@H](CCCNC(=N)N)C(=O)N1CCC[C@H]1C(=O)N1CCC[C@H]1C(=O)NCC(=O)N[C@@H](Cc1cccs1)C(=O)N[C@@H](CO)C(=O)N[C@H](Cc1ccccc1)C(=O)N[C@@H](Cc1cccs1)C(=O)N[C@H](CCCNC(=N)N)C(N)=O` [Example 56, Ac-Arg-Pro-Pro-Gly-Thi-Ser-DPhe-Thi-DArg-NH2] (Ac-RPPG[2Thi]S[dF][2Thi][dR]-NH2), for which, in series [1], the “pA2 /GPI: activity class” value is on record as 0. Also, the “pA2 /RUT: activity class” value with isolated rat uterus (isolated rat uterus) amounted to 0.

Take `CC[C@H](C)[C@H](NC(=O)[C@H](CCCNC(=N)N)NC(=O)[C@H](Cc1ccccc1)NC(=O)[C@@H]1CCCN1C(=O)[C@H](CO)NC(=O)[C@H](Cc1ccccc1)NC(=O)CNC(=O)[C@@H]1CCCN1C(=O)[C@@H]1CCCN1C(=O)[C@H](CCCNC(=N)N)NC(=O)[C@H](N)CCCNC(=N)N)C(=O)N[C@@H](Cc1ccc(O)cc1)C(=O)O` [Example 60, DArg-Arg-Pro-Pro-Gly-Phe-Ser-Pro-Phe-Arg-Ile-Tyr] (H-[dR]RPPGFSPFRIY-OH): the “pA2 /GPI: agonist potency as percent of BK potency” value in series [1] is listed as 34%. Besides, in the series with isolated rat uterus (isolated rat uterus), the “pA2 /RUT … as percent of BK potency” value stood at 25%. For the same compound, the “RBP-IA: agonist potency as percent of BK potency” value with rat blood pressure (setting [2]) worked out at 12%. In addition, in the series on rat blood pressure (setting [3]), the “RBP-IV: agonist potency as percent of BK potency” value is 189%. For the same compound, in the series on rat blood pressure (relative to BK = 100%), the “% DESTR (metabolic breakdown of BK-like agonists in RBP assay)” value is reported as 47%.

Regarding `CC[C@H](C)[C@H](NC(=O)[C@H](CCCNC(=N)N)NC(=O)[C@H](Cc1ccccc1)NC(=O)[C@@H](Cc1ccccc1)NC(=O)[C@H](CO)NC(=O)[C@H](Cc1ccccc1)NC(=O)CNC(=O)[C@@H]1CCCN1C(=O)[C@@H]1CCCN1C(=O)[C@H](CCCNC(=N)N)NC(=O)[C@H](N)CCCNC(=N)N)C(=O)N[C@@H](Cc1ccc(O)cc1)C(=O)O` [Example 64, DArg-Arg-Pro-Pro-Gly-Phe-Ser-DPhe-Phe-Arg-Ile-Tyr] (H-[dR]RPPGFS[dF]FRIY-OH), in series [1], the “pA2 /GPI (antagonist potency)” value is given as 6.2. Further, the “pA2 /RUT … as percent of BK potency” value in the series on isolated rat uterus (isolated rat uterus) amounted to 0.7%.

Turning to `CC[C@H](C)[C@H](NC(=O)[C@H](CCCNC(=N)N)NC(=O)[C@H](Cc1cccs1)NC(=O)[C@@H](Cc1ccccc1)NC(=O)[C@H](CO)NC(=O)[C@H](Cc1cccs1)NC(=O)CNC(=O)[C@@H]1CCCN1C(=O)[C@@H]1CCCN1C(=O)[C@H](CCCNC(=N)N)NC(=O)[C@H](N)CCCNC(=N)N)C(=O)N[C@@H](Cc1ccc(O)cc1)C(=O)O` [Example 66, DArg-Arg-Pro-Pro-Gly-Thi-Ser-DPhe-Thi-Arg-Ile-Tyr] (H-[dR]RPPG[2Thi]S[dF][2Thi]RIY-OH), in series [1], the “pA2 /GPI (antagonist potency)” value worked out at 5.8. Further, in the series on isolated rat uterus, the “pA2 /RUT … as percent of BK potency” value worked out at 0.3%.
